Experimental data published in PMC6286390, “Discovering de novo peptide substrates for enzymes using machine learning” (Nature Communications, 2018).
“Also recorded” adds a separate entry of the source.

Columns and labels:
S. coelicolor AcpS = experiment: SPOT cellulose membrane peptide labeling with TAMRA-CoA by AcpS; type: biochemical, Streptomyces coelicolor; settings: 10 µM PPTase, 40 µM TAMRA-CoA, 0.01% Triton X, 15 µM BSA, 50 mM Tris-HCl pH 8.0, 10 mM MgCl2, 16 h, 37 °C, fluorescence ex 532 nm/em 580 nm
Protocol: (§1) The peptides were synthesized on an amino-PEG-cellulose 10×15 cm^2 membrane and synthesized automatically by MultiPep RSi (INTAVIS Bioanalytical Instruments AG). After Fmoc cleavage with 20% 4-methyl piperidine (Sigma) in dimethylformamide (DMF), activated with 1 equiv. hydroxybenzotriazole and 2 equiv. N-methylpyrrolidone (NMP), and directly spotted on the membrane; after 15 min this step was repeated. The membrane was washed with DMF (3 × 3 min). Solutions of the Fmoc amino acids in NMP were spotted on the membrane (0.6 M solutions; 0.8 M solutions for C, H, N, Q, and R; triple coupling, 15 min each). The Fmoc group was removed from the spots, and the sequences of the peptides were completed using the standard SPOT synthesis protocol and followed by an N-terminal tag. […]
(§2) Synthesized membranes were deprotected with cleavage cocktail consisting of 94% trifluoroacetic acid (TFA), 2.5% water, 1% triisopropylsilane (Sigma), and 2.5% 1,2-ethanedithiol (Sigma) shaking at 2 h at room temperature. […] The membranes were rinsed liberally with TBST buffer, 0.1% TFA, and distilled deionized water before imaging on a Typhoon TRIO Variable Mode Imager (GE Healthcare BioSciences) at 50-µm resolution with 532 nm green laser excitation and 580 nm emission filter and a photomultiplier tube setting of 350 V. The membrane images were analyzed by the ImageJ software[37],[38].

B. subtilis Sfp = experiment: SPOT cellulose membrane peptide labeling with TAMRA-CoA by Sfp; type: biochemical, Bacillus subtilis; settings: 10 µM PPTase, 40 µM TAMRA-CoA, 0.01% Triton X, 15 µM BSA, 50 mM Tris-HCl pH 8.0, 10 mM MgCl2, 16 h, 37 °C, fluorescence ex 532 nm/em 580 nm
Protocol: as §1, §2

Sequence	labeling of membrane-bound peptide by AcpS (substrate / hit) (S. coelicolor AcpS)	labeling of membrane-bound peptide by Sfp (substrate / hit) (B. subtilis Sfp)
WPEEGIESFMSVPPP [4T25, AcpS-type peptide hit identified by POOL, round 4]	AcpS-type peptide hits; also recorded: specific to AcpS	
IHDGADSVVWLWSNC	neither a substrate for Sfp nor AcpS	neither a substrate for Sfp nor AcpS
AVKMESLEYLDTM [4F01, Sfp-type peptide hit identified by POOL, round 4]		Sfp-type peptide hits; also recorded: specific to Sfp
